Molecules are shown by their SMILES.

The target of this assay is human TRPV4 (Homo sapiens (Human), UniProt Q9HBA0). Put plainly: Test Example 3: measurement of TRPV4 inhibitory activity (Fluo-3, FDSS 3000, 4α-PDD). Format: cell-based. Conditions: hTRPV4/CHO cells, calculated from IC50 and 4α-PDD EC50. The procedure: For each compound, TRPV4 inhibitory activity was measured using cells.
human TRPV4, sequence (Q9HBA0 whole entry): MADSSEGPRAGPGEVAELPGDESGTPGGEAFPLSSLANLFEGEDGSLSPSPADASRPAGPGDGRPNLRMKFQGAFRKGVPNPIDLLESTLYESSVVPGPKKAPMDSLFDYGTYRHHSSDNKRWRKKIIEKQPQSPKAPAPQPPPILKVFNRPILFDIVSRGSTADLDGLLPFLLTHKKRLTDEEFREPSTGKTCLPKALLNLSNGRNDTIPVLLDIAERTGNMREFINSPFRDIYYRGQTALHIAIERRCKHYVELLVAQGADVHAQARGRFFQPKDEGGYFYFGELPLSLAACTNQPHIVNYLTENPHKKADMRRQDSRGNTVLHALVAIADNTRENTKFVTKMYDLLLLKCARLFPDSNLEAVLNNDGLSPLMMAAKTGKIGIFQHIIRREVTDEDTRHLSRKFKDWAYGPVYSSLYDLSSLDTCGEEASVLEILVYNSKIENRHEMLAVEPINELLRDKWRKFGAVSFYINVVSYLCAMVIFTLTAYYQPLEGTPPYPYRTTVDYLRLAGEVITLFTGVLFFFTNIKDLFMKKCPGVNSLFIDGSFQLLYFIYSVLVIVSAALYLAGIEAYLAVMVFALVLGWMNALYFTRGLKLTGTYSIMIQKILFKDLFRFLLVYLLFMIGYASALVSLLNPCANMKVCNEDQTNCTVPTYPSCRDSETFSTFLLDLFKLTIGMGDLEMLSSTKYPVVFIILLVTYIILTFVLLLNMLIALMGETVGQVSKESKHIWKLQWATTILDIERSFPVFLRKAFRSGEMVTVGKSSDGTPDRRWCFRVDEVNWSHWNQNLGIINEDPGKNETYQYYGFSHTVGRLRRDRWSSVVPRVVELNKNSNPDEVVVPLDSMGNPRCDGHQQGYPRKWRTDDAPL
(1) The TRPV4 inhibitory activity was measured using CHO-K1 cells stably expressing human TRPV4 (hTRPV4/CHO cells).
(2) Frozen cells were thawed and subcultured with the medium (MEM-α, 10% FBS, […], 50 unit/mL penicillin, 50 μg/mL streptomycin, 1 mg/mL G418).
(3) The 96-well plates which hTRPV4/CHO cells were seeded at densities of 2×10^4 cells/well in the culture medium and cultured in a CO2 incubator in the presence of 5% CO2 at 37° C. for 24 h was used as assay plates.
(4) The assay plate was washed with assay buffer (Hanks, […], […], pH7.4).
(5) Fluo-3, fluorescent dye for Ca influx assay was added to each well, then the assay plate was incubated in a CO2 incubator in the presence of 5% CO2 at 37° C. for one hour (final conc.; 5 μmmol/L Fluo-3).
(6) The assay plate was washed with the assay buffer, and the buffer was remained at 30 μL/well. Then the assay plate was incubated for 10 min at 37° C.
(7) Diluted compound solution was dispensed to each well in the compound plate, and mixed with built-in Pipette and Mixer of the fluorescence analysis system FDSS 3000 (Hamamatsu Photonics).
(8) 50 μL of 4α-PDD solution (concluding 0.1% Pluronic F-127) was applied to each well of assay plate and mixed.
(9) The fluorescent intensity was measured by FDSS 3000 for 8 min from the point of time addition the compound solution, at Ex 480 nm, Em 540 nm wavelength.
TRPV4 inhibitory activity (Ki value) of a compound was evaluated according to the following procedure.
(10) In the presence of the compound, the difference between maximal and minimal of fluorescent intensity value for 8 min from just before addition of 4α-PDD solution was calculated, and it was referred as Max-Min value. Max-Min value of the Ruthenium Red at 10 μM was defined as 100% inhibitory activity, Max-Min value in the absence of the compound was defined as 0% inhibitory activity. The TRPV4 inhibitory activity of the compound was calculated by the following formula. (1−(Max-Min value of the compound−100% inhibitory activity)/(0% inhibitory activity−100% inhibitory activity))×100 (11) By the following formula, inhibitory activity was calculated at 10 points with three fold serial dilution, in the final concentration of the compound from 10 μmmol/L to 0.5 nmol/L. The IC50 value was calculated by dose-response curve. 100−[(fluorescent intensity in the presence of the compound−fluorescent intensity of back ground)/(total fluorescent intensity−fluorescent intensity of back ground)]×100 (12) In the presence of the compound, activity of 4α-PDD was measured at 9 points with three fold serial dilution from 20 μmol/L. Activity of 4α-PDD was calculated by the following formula. (Max-Min value of the each 4α-PDD concentration−0% activity)/(100% activity−0% activity))×100 (13) Effective activity was calculated in 4α-PDD the above. The EC50 value was calculated by dose-response curve. (14) The Ki value of a compound was calculated by the following formula. Ki (nmol/L)=IC50 value (nmol/L)/([A]/EC50 value (nmol/L)) [A]; Concentration of agonist (nmol/L)
For orientation: Ki means a measure of affinity in units of concentration, obtained from inhibition or displacement. On to `Cc1c(C(=O)Nc2cccc(C(F)(F)F)c2)cc(-c2ccccc2)n1CCCN(C)C(=O)C1CC1` [Compound I-052], for which the Ki was 707 nM.
The result for `Cc1c(C(=O)Nc2cccc(C(F)(F)F)c2)cc(-c2ccccc2)n1CCCN(C)C(=O)C(C)C` [Compound I-051] reads 590 nM.
The result for `Cc1c(C(=O)Nc2cccc(C(F)(F)F)c2)cc(-c2ccccc2)n1CCCN(C)C(=O)OC(C)(C)C` [Compound I-030] reads 701 nM.
The result for `Cc1c(C(=O)Nc2cccc(C(F)(F)F)c2)cc(-c2ccccc2)n1CCCN(C)C(=O)c1ccco1` [Compound I-043] reads 1380 nM; that for `COCC(=O)N(C)CCCn1c(-c2ccccc2)cc(C(=O)Nc2cccc(C(F)(F)F)c2)c1C` [Compound I-045], 1720 nM; that for `Cc1c(C(=O)Nc2cccc(C(F)(F)F)c2)cc(-c2ccccc2)n1CCCN(C)C(=O)c1ccccn1` [Compound I-054], 1160 nM.
As for `COc1ccc(OC)c(CC(=O)N(C)CCCn2c(-c3ccccc3)cc(C(=O)Nc3cccc(C(F)(F)F)c3)c2C)c1` [Compound I-065], the Ki is 850 nM.
The result for `Cc1c(C(=O)Nc2cccc(C(F)(F)F)c2)cc(-c2ccccc2)n1CCCN(C)C(=O)C1CCCCC1` [Compound I-042] reads 1120 nM.
The result for `COCCOCC(=O)N(C)CCCn1c(-c2ccccc2)cc(C(=O)Nc2cccc(C(F)(F)F)c2)c1C` [Compound I-050] reads 1140 nM; that for `Cc1c(C(=O)Nc2cccc(C(F)(F)F)c2)cc(-c2ccccc2)n1CCCN(C)C(=O)c1csc(-c2cccs2)n1` [Compound I-062], 1390 nM; that for `Cc1c(C(=O)Nc2cccc(C(F)(F)F)c2)cc(-c2ccccc2)n1CCCN(C)C(=O)C(=O)c1c[nH]c2ccccc12` [Compound I-067], 2370 nM.
`Cc1c(C(=O)Nc2cccc(Cl)c2)cc(-c2ccccc2)n1CCCN1CCOCC1` [Compound I-013]: the inhibition constant Ki is 453 nM.
The result for `Cc1c(C(=O)Nc2cccc(C(C)C)c2)cc(-c2ccccc2)n1CCCN1CCOCC1` [Compound I-029] reads 519 nM; that for `Cc1c(C(=O)Nc2cccc(C(F)(F)F)c2)cc(-c2ccccc2)n1CCCN(C)CC1CCOCC1` [Compound I-040], 1140 nM; that for `Cc1c(C(=O)Nc2cccc(C(F)(F)F)c2)cc(-c2ccccc2)n1CCCN(C)C(=O)Cc1cccs1` [Compound I-046], 1680 nM.
The result for `Cc1c(C(=O)OCc2ccccc2)cc(C(C)(C)C)n1CCCN1CCOCC1` [Compound I-001] reads 3960 nM; that for `Cc1c(C(=O)Nc2cccc(C(F)(F)F)c2)cc(-c2ccccc2)n1CCCN(C)C(=O)c1cccs1` [Compound I-044], 844 nM.
The result for `Cc1c(C(=O)Nc2cccc(C(F)(F)F)c2)cc(-c2ccccc2)n1CCCN(C)C(=O)C(Cl)(Cl)Cl` [Compound I-064] reads 713 nM.
As to `Cc1c(C(=O)Nc2cccc(C(F)(F)F)c2)cc(-c2ccccc2)n1CCCN(C)C(=O)c1cccnc1` [Compound I-053], the Ki was 978 nM.
The result for `Cc1c(C(=O)Nc2cccc(C(F)(F)F)c2)cc(-c2ccccc2)n1CCCN(C)C(=O)c1cccc(N(C)C)c1` [Compound I-069] reads 816 nM.
The result for `Cc1c(C(=O)Nc2cccc(C(F)(F)F)c2)cc(-c2ccccc2)n1CCCN(C)CCOCc1ccccc1` [Compound I-034] reads 2620 nM; that for `Cc1c(C(=O)Nc2cccc(C(F)(F)F)c2)cc(-c2ccccc2)n1CCCN(C)C(=O)c1ccncc1` [Compound I-047], 320 nM.
With `CC(=O)Nc1ccc(C(=O)N(C)CCCn2c(-c3ccccc3)cc(C(=O)Nc3cccc(C(F)(F)F)c3)c2C)cc1` [Compound I-056], the Ki is 560 nM.
The result for `CC(=O)N1CCC(C(=O)N(C)CCCn2c(-c3ccccc3)cc(C(=O)Nc3cccc(C(F)(F)F)c3)c2C)CC1` [Compound I-057] reads 1790 nM; that for `COC(=O)CCCN(C)CCCn1c(-c2ccccc2)cc(C(=O)Nc2cccc(C(F)(F)F)c2)c1C` [Compound I-041], 988 nM; that for `Cc1c(C(=O)Nc2cccc(C(F)(F)F)c2)cc(-c2ccccc2)n1CCCN(C)C(=O)c1ccc(N(C)C)cc1` [Compound I-060], 1350 nM.
The result for `Cc1c(C(=O)Nc2cccc(C(F)(F)F)c2)cc(-c2ccccc2)n1CCCN(C)C(=O)c1ccc2occc2c1` [Compound I-058] reads 1650 nM; that for `Cc1c(C(=O)Nc2cccc(C(F)(F)F)c2)cc(-c2ccccc2)n1CCCN(C)C(=O)c1ccc2ccccc2n1` [Compound I-055], 984 nM.
The result for `Cc1c(C(=O)Nc2cccc(C(F)(F)F)c2)cc(-c2ccccc2)n1CCCNc1ccccc1` [Compound I-011] reads 1700 nM; that for `Cc1c(C(=O)Nc2cccc(C(F)(F)F)c2)cc(-c2ccccc2)n1CCCN(C)C(=O)C1CCOCC1` [Compound I-068], 1010 nM.
In the case of `Cc1c(C(=O)Nc2cccc(C(F)(F)F)c2)cc(-c2ccccc2)n1CCCN(C)C(=O)c1ccc2c(c1)OCO2` [Compound I-048], the Ki was 1310 nM.
On to `Cc1c(C(=O)Nc2nc3ccccc3s2)cc(-c2ccccc2)n1CCCN1CCOCC1` [Compound I-020], for which the inhibitory constant (Ki) is 992 nM.
The result for `Cc1c(C(=O)Nc2cccc(C(F)(F)F)c2)cc(-c2ccccc2)n1CCCN(C)CC1CCOC1` (centres unmarked) [Compound I-036] reads 1000 nM; that for `Cc1c(C(=O)Nc2cccc(C(F)(F)F)c2)cc(-c2ccccc2)n1CCCN(C)c1ccccc1` [Compound I-012], 1140 nM; that for `Cc1c(C(=O)Nc2cccc(C(F)(F)F)c2)cc(-c2ccccc2)n1CCCN(C)C(=O)C1CCC1` [Compound I-059], 472 nM.
The result for `CCOC(=O)C1CC1CN(C)CCCn1c(-c2ccccc2)cc(C(=O)Nc2cccc(C(F)(F)F)c2)c1C` (centres unmarked) [Compound I-037] reads 1800 nM; that for `Cc1c(C(=O)Nc2cccc(C(F)(F)F)c2)cc(-c2ccccc2)n1CCCN(C)C(=O)c1cnc2ccccc2n1` [Compound I-066], 662 nM.
The result for `Cc1c(C(=O)Nc2cccc(C(F)(F)F)c2)cc(-c2ccccc2)n1CCCN(C)C(=O)c1csc(-c2ccccc2)n1` [Compound I-061] reads 1700 nM.

The values above are taken from patent US9340500B2, “Aromatic heterocyclic derivative having TRPV4-inhibiting activity” (SHIONOGI & CO., LTD., priority 2011, dated 2016).
